Converted amounts (≈) assume the structure as drawn.
Key:
Msm ΔEM-pMbtAtb = test: microbe, parasite or virus in culture; assay type: cell-based, Mycobacterium smegmatis; conditions: for MIC potency compared to 1 (decrease): Fe-limiting media
MbtAtb (H10MbtA^opt) [1] = biological target: T1, MbtAtb (H10MbtA^opt) (Mycobacterium tuberculosis, UniProt P71716); assay type: biochemical
MbtAtb (H10MbtA^opt) [2] = biological target: T1, MbtAtb (H10MbtA^opt); assay type: biochemical; conditions: Kiapp increased linearly with [S]
PPT-PNP coupling system = assay type: biochemical
Msm WT = test: Growth inhibition assay; assay type: cell-based, Mycobacterium smegmatis; conditions: GASTD+Fe medium
Msm ΔE = test: microbe, parasite or virus in culture; assay type: cell-based, Mycobacterium smegmatis; conditions: GASTD medium (Fe-limiting)
Msm ΔM = assay type: cell-based, Mycobacterium smegmatis; conditions: GASTD+Fe medium
Mtb [3] = conditions: cited from earlier work
Mtb [4] = conditions: monotherapy at 5.6 or 16.7 mg/kg; cited from earlier work
[5] = mouse; cited from earlier work
mammalian cells = conditions: cited from earlier work
MbtAtb = conditions: cited from earlier work; for Ki: read-out: Kiapp
MbtAtb (H10MbtA^opt) [6] = biological target: T1, MbtAtb (H10MbtA^opt); assay type: biochemical; conditions: read-out: IC50 (H10MbtA^opt-dependent signal, salicyl-AMS fragments)
H10MbtA^opt = H10MbtA^opt (Mycobacterium tuberculosis, UniProt P71716); assay type: biochemical
Sequence of H10MbtA^opt (P71716 whole entry, looked up): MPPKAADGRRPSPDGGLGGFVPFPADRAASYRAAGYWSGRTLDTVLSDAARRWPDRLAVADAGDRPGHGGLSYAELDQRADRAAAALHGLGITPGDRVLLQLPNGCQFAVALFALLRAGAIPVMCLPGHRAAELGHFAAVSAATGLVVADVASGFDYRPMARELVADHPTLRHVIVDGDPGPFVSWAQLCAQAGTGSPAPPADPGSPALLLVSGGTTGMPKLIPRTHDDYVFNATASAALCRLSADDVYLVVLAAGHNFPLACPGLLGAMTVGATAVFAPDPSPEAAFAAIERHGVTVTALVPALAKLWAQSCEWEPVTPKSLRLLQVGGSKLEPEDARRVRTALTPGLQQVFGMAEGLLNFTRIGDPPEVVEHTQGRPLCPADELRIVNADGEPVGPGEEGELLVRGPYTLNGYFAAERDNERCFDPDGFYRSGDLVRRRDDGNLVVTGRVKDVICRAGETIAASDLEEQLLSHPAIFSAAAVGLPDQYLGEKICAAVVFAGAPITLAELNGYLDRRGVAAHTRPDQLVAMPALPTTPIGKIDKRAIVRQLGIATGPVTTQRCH

T1 sequence (P71716 whole entry, looked up): as above

Compound: Nc1nc(Nc2ccccc2)nc2c1ncn2C1OC(COS(=O)(=O)NC(=O)c2ccccc2O)C(O)C1O (stereo not shown) [3b, salicyl-2-NHPh-AMS]
- MIC potency compared to 1 (decrease) (Msm ΔEM-pMbtAtb): no statistically significant difference

Compound: O=C(NS(=O)(=O)OC[C@H]1O[C@@H](n2cnc3c(NC4CC4)ncnc32)[C@H](O)[C@@H]1O)c1ccccc1O [5b, salicyl-6-N-c-Pr-AMS]
- Kiapp higher than that of salicyl-AMS (1) (MbtAtb (H10MbtA^opt) [1]): ≈ 5.5 fold
- decrease in tR compared with salicyl-AMS (1) (MbtAtb (H10MbtA^opt) [1]): ≈ 0.5 fold
- increase in koff compared with salicyl-AMS (1) (MbtAtb (H10MbtA^opt) [1]): ≈ 2 fold
- konapp lower than that of salicyl-AMS (1) (MbtAtb (H10MbtA^opt) [1]): ≈ 2.5 fold
- MIC potency compared to 1 (decrease) (Msm ΔEM-pMbtAtb): 6 fold

Compound: COc1ncnc2c1ncn2[C@@H]1O[C@H](CNS(=O)(=O)NC(=O)c2ccccc2O)[C@@H](O)[C@H]1O [compound 6, salicyl-6-MeO-AMSN]
- Kiapp higher than that of salicyl-AMS (1) (MbtAtb (H10MbtA^opt) [1]): 10 fold
- decrease in tR compared with salicyl-AMS (1) (MbtAtb (H10MbtA^opt) [1]): ≈ 0.5 fold
- increase in koff compared with salicyl-AMS (1) (MbtAtb (H10MbtA^opt) [1]): ≈ 2 fold
- konapp lower than that of salicyl-AMS (1) (MbtAtb (H10MbtA^opt) [1]): 6 fold
- MIC potency compared to 1 (decrease) (Msm ΔEM-pMbtAtb): 6 fold

Compound: Nc1nc(-c2ccccc2)nc2c1ncn2C1OC(COS(=O)(=O)NC(=O)c2ccccc2O)C(O)C1O (stereo not shown) [3a, salicyl-2-Ph-AMS]
- MIC potency compared to 1 (decrease) (Msm ΔEM-pMbtAtb): no statistically significant difference

Compound: Nc1ncnc2c1ncn2[C@@H]1O[C@H](COS(=O)(=O)NC(=O)c2ccccc2O)[C@@H](O)[C@H]1O [compound 1, 5´-O-[N-salicylsulfamoyl]adenosine]
- inhibition mechanism with respect to both MbtAtb substrates (MbtAtb (H10MbtA^opt) [2]): competitive inhibition mechanism
- mechanism of inhibition (kobs vs inhibitor concentration) (MbtAtb (H10MbtA^opt) [1]; linear kobs vs [I]): static, slow-onset mechanism of inhibition
- effect on the PPT-PNP coupling system (PPT-PNP coupling system): did not affect
- MIC (Msm WT): >1000 µg/mL
- MIC (Msm ΔE): 0.5 to 1 µg/mL
- MIC (Msm ΔE; Mycolicibacterium smegmatis): 0.5 to 1 µg/mL (≈ 1.07 to 2.14 µM)
- MIC (Msm ΔM): >1000 µg/mL
- MIC (Msm ΔEM-pMbtAtb; GASTD medium (Fe-limiting), listed as salicyl-AMS): 0.5 to 1.0 µg/mL
- MIC (Msm ΔEM-pMbtAtb; GASTD+Fe medium (Fe-rich)): > 1,000 µg/ml
- MIC (Msm ΔEM-pMbtAtb; Mycolicibacterium smegmatis, GASTD medium (Fe-limiting)): 0.5 to 1 µg/mL (≈ 1.07 to 2.14 µM)
- MIC (Msm ΔEM-pMbtAtb; Mycolicibacterium smegmatis, GASTD+Fe medium (Fe-rich)): > 1000 µg/mL
- MIC (Mtb [3]; Fe-limiting medium, comparable inoculum): 0.1 to 0.5 µg/mL
- Mtb growth in the mouse lung (Mtb [4]): significant reduction of Mtb growth in the mouse lung
- doses with in vivo toxicity [5]: ≥ 16.7 mg/kg
- cytotoxicity against mammalian cells (mammalian cells): not cytotoxic

Compound: O=C(NS(=O)(=O)OCC1OC(n2cnc3c(=O)[nH]cnc32)C(O)C1O)c1ccccc1O (stereo not shown) [compound 11, salicyl-IMS]
- Mtb MIC (Mtb [3]): > 100 µM
- Ki (MbtAtb): 0.8 µM

Compound: Nc1ncnc2c1ncn2[C@H]1C[C@H](O)[C@@H](COS(=O)(=O)NC(=O)c2ccccc2O)O1 [compound 2, salicyl-2´-dAMS]
- worsening of the kinetic parameters relative to salicyl-AMS (1) (MbtAtb (H10MbtA^opt) [1]): ≤ 2 fold
- MIC potency compared to 1 (decrease) (Msm ΔEM-pMbtAtb): 6 fold
- decrease in Kiapp relative to salicyl-AMS (1) (MbtAtb; ATP-PPi assay): 0.5 fold

Compound: salicyl-AMSNMe [4b]
- improvement in Kiapp of 4b versus 4a (MbtAtb (H10MbtA^opt) [1]): 0.5 fold
- MIC potency compared to 1 (decrease) (Msm ΔEM-pMbtAtb): indistinguishable

Compound: CN(C)c1ncnc2c1ncn2C1OC(COS(=O)(=O)NC(=O)c2ccccc2O)C(O)C1O (stereo not shown) [compound 12, salicyl-6-N,N-diMe-AMS]
- Mtb MIC (Mtb [3]): 50 µM
- Ki (MbtAtb): 0.38 µM

Compound: CNc1ncnc2c1ncn2[C@@H]1O[C@H](COS(=O)(=O)NC(=O)c2ccccc2O)[C@@H](O)[C@H]1O [5a, salicyl-6-N-Me-AMS]
- Kiapp higher than that of salicyl-AMS (1) (MbtAtb (H10MbtA^opt) [1]): ≈ 5.5 fold
- decrease in tR compared with salicyl-AMS (1) (MbtAtb (H10MbtA^opt) [1]): ≈ 0.5 fold
- increase in koff compared with salicyl-AMS (1) (MbtAtb (H10MbtA^opt) [1]): ≈ 2 fold
- konapp lower than that of salicyl-AMS (1) (MbtAtb (H10MbtA^opt) [1]): ≈ 2.5 fold
- MIC potency compared to 1 (decrease) (Msm ΔEM-pMbtAtb): no statistically significant difference

Compound: O=C(NS(=O)(=O)O)c1ccccc1O [compound 8, salicyl-sulfamate]
- IC50 (MbtAtb (H10MbtA^opt) [6]): ~1000 µM

Compound: Nc1ncnc2c1ncn2[C@@H]1O[C@H](COP(=O)(O)OP(=O)(O)OP(=O)(O)O)[C@@H](O)[C@H]1O [ATP]
- KmATP (H10MbtA^opt): 13.0 ± 1.3 µM
- kcatsal (ATP as the variable substrate) (H10MbtA^opt): 0.0193 ± 0.00067 s⁻¹

Compound: Nc1ncnc2c1ncn2[C@@H]1O[C@H](CNS(=O)(=O)NC(=O)c2ccccc2O)[C@@H](O)[C@H]1O [4a, salicyl-AMSN]
- MIC potency compared to 1 (decrease) (Msm ΔEM-pMbtAtb): no statistically significant difference

Compound: O=C(O)c1ccccc1O [salicylic acid]
- Kmsal (H10MbtA^opt): 0.31 ± 0.003 µM
